Ends that are not written are not given here.

The experiment deals with KV3.4 currents. Briefly: Whole-cell patch clamp of KV3.4 currents in NGF-differentiated PC-12 cells, control or exposed to Aβ1−42. It is filed as cell-based, Rat. The following applies: peak of +40 mV pulse, 6 to 10 cells, 3 sessions; for effect on KV3.4 activity in NGF-differentiated PC-12 cells: 100 nM, control condition (no Aβ1−42); for effect on KV3.4 upregulation elicited by Aβ1−42 exposure: peptide 100 nM, 30 min pre-treatment, Aβ1−42 oligomers 5 μM for 24 h. As for the experimental part:
Rat pheochromocytoma cells (PC-12 cells) were grown as previously described (Pannaccione et al., [2005], [2007]). For all the experiments, cells were seeded at low density on glass cover-slips coated with poly-L-lysine (50 μg/ml). Differentiation of PC-12 cells was achieved by treatment with neuronal growth factor (NGF) 2.5 S (50 ng/ml) for 7–9 days (Greene and Tischler, [1976]). For electrophysiological experiments, cells were seeded on glass cover-slips and used after 7–9 days of NGF.
Currents from CHO cells were recorded at room temperature 1-2 days after transfection. The extracellular solution contained the following (in mM): 138 NaCl, 5.4 KCl, 2 CaCl2, 1 MgCl2, 10 glucose and 10 HEPES, adjusted pH 7.4 with NaOH. The pipette solution contained (in mM) the following: 140 KCl, 2 MgCl2, 10 EGTA, 10 HEPES, 5 Mg-ATP, adjusted pH 7.4 with KOH (Miceli et al., [2015]). KV3.4 currents were measured by applying voltage steps from −100 mV to +60 mV from a holding potential of −80 mV (Abbott et al., [2001]). Moreover, the total outward K^+ currents were recorded in NGF-differentiated PC-12 cells using the extracellular solution contained the following (in mM): 150 NaCl, 5.4 KCl, 3 CaCl2, 1 MgCl2, 10 HEPES, adjusted pH 7.4 with NaOH. The pipette solution contained the following (in mM): 140 KCl, 2 MgCl2, 10 HEPES, 10 glucose, 10 EGTA, and 1 Mg-ATP adjusted at pH 7.4 with KOH (Diochot et al., [1998]). All experiments were performed in the presence of 50 nM tetrodotoxin (TTX) and 10 μ M nimodipine in the extracellular solution. To discriminate K^+ current components appropriate electrophysiological protocols were used (Pannaccione et al., [2007]). Steady-state activation and inactivation properties were measured by using appropriate protocols (Pannaccione et al., [2005]). […] The capacitance of the membrane was calculated according to the following equation: Cm = τc·Io/ΔEm (1-I∞/Io), where Cm is membrane capacitance, τc is the time constant of the membrane capacitance, Io is the maximum capacitance current value, ΔEm is the amplitude of the voltage step, and I∞ is the amplitude of the steady-state current. K^+ currents were recorded by patch-clamp technique in CHO and NGF-differentiated PC-12 cells using a commercially available amplifier (Axopatch 200B, Molecular Devices) and Digidata 1322A interface (Molecular Devices, USA). […] Data were acquired and analyzed using the pClamp software (version 9, Molecular Devices). […]
The peptide used in our study was synthesized by INBIOS (Pozzuoli, Naples, Italy) using the Aβ1−42 sequence of human APP [UniProtKB-P05067 (A4_HUMAN)]. The purity of the peptide was assessed by high-performance liquid chromatography (>95% pure) and the amino acid composition was verified by mass spectrometry. […]
Background: In patch-clamp work, channel activity is measured electrically.

As for AAPAFASG [BDS-I[1-8]], the “effect on KV3.4 activity in NGF-differentiated PC-12 cells” value is “blocked KV3.4 activity” and the “effect on KV3.4 upregulation elicited by Aβ1−42 exposure” value is given as “prevented”.
As to H-GSAFAPAA-OH [BDS-I[1-8scr]], the “effect on KV3.4 activity in NGF-differentiated PC-12 cells” value is on record as “did not exert any effect” and the “effect on KV3.4 upregulation elicited by Aβ1−42 exposure” value is listed as “did not counteract”.

Values taken from PMC6629785, “Synthesis and Pharmacological Evaluation of a Novel Peptide Based on Anemonia sulcata BDS-I Toxin as a New KV3.4 Inhibitor Exerting a Neuroprotective Effect Against Amyloid-β Peptide” (Frontiers in Chemistry, 2019).
